{"source": "patent US20030072828A1", "about": "“Natural therapeutic composition for the treatment of wounds and sores” (priority 2001, published 2003)", "key": {"[1]": {"test": "Personal experience: general traits of components", "conditions": "from personal experience", "text": "(§1) From personal experience we have discovered the following traits associated with the specific components of the invention: […]"}, "[2]": {"test": "Personal experience: component topically applied to the skin of the face", "format": "in vivo", "text": "as §1"}, "[3]": {"test": "Personal experience: component topically applied to scalds", "format": "in vivo", "text": "as §1"}}}
{"molecule": "O=C1O[C@H]([C@@H](O)CO)C(O)=C1O", "note": "[Vitamin C]", "values": [{"measurement": "trait of the component", "setting": "[1]", "result": "combating pain and inflammation"}]}
{"molecule": "Vitamin A", "values": [{"measurement": "appearance of the skin", "setting": "[2]", "result": "improved appearance of the skin"}]}
{"molecule": "Vitamin E", "values": [{"measurement": "pain and healing of the wound", "setting": "[3]", "result": "reduced pain and improved healing of the wound"}]}
